Reference: article PMC11571215, “Optimization of Antiproliferative Properties of Triimine Copper(II) Complexes” (Journal of Medicinal Chemistry, 2024)

Assays:
[1] = target: T1, bovine serum albumin (BSA) (Bos taurus, UniProt P02769); test: Interaction with bovine serum albumin (UV-vis, fluorescence); type: binding; conditions: 24 h, 37 °C; for BSA UV-Visible absorbance change: BSA 20 µM, complexes 10, 25 and 50 µM; for BSA fluorescence quenching: BSA 20 μM, complexes 10-100 µM, excitation 278 nm
T1 construct: composed of single polypeptide chains with 583 amino
Description: All solutions used to perform the BSA interaction assays were diluted in filtered buffer (10 mM phosphate buffer and 150 mM NaCl) pH 7.0, with BSA at a fixed final concentration of 20 μM and the concentrations of the complexes varying from 10 to 100 μM. Control solutions were also prepared, namely, a solution containing only BSA, a solution consisting of BSA + DMSO, and a solution consisting of DMSO only. Solutions were analyzed after 24 h of incubation at 37 °C. UV–visible absorption spectra were acquired using the Evolution 300 UV–vis (Thermo Fisher Scientific, Waltham, MA, USA) in the wavelength range between 245 and 500 nm in quartz cuvettes. The fluorescence of the samples mentioned was analyzed using a Cary Eclipse fluorimeter (VARIAN, California, USA). The BSA molecule was excited at 278 nm (maximum absorption peak), and emission was recorded between 290 and 500 nm. The setup was set at a slow speed (120 nm/min) using 5 nm slits. The absorbance value of the buffer containing DMSO (at the respective percentages) was subtracted from that of each sample.
12. Interaction with Bovine Serum Albumin (BSA)
In the perspective of translating the complexes into clinical practice and considering their administration and distribution in the human body, it is essential to examine their potential interaction with albumin, a protein present in human plasma at high concentrations. In this regard, bovine serum albumin (BSA) was utilized as a model. BSA is the most abundant plasma protein in vertebrates, sharing approximately 76% similarity with human serum albumin (HSA) and composed of single polypeptide chains with 583 amino […]
UV-Visible spectroscopy is an effective method for predicting conformational changes in proteins when interacting with small molecules such as drugs. The interaction of BSA […]
spectroscopy, considering the intrinsic fluorescence of tryptophan residues in BSA. Figure […]
DMSO and BSA in the presence of increasing concentrations of the metallic complexes.
(1 picture or pasted object on this page, not shown here)

[2] = tested on: HCT116-DoxR 3D spheroids; test: MTS cell viability assay in 3D tumor spheroids; type: cell-based, human; conditions: spheroids with 6 days of growth, 48 h of exposure
Description: The research on tumor microenvironment (TME) has recently been gaining attention due to its important role in tumor growth, progression, and response to therapy.[57]−[60] Because of this, the development of 3D cancer models that mimic the interactions in the TME and the tumor structure and complexity is of great relevance to cancer research and drug development. […] The MTS assay was performed inHCT116-DoxR 3D spheroids with 6 days of growth (Figure S15 in ESI), followed by exposure to the complexes for 48 h. The results of cell viabilities and respective relative IC50 values calculated are provided in Figure 4 and Table 5, respectively.
HCT116-DoxR cells were seeded at 5 × 10^4 cells/mL in super low Attachment 96-well plates (NunclonSphera U-Shaped-Bottom Microplate, Thermo Fisher Scientific, Waltham, MA, USA) and incubated at 37 °C in a humidified atmosphere with 5% (v/v) CO2, to allow spheroids formation and growth.[60],[105] To perform the cell viability study, two methods were used: the MTS assay and the CellTox assay.
For MTS assay, HCT116DoxR spheroids grown for 6 to 8 days were used. […] The spheroids were further incubated for 4 h and subsequently transferred the medium to a 96-well flat-bottom plate for analysis using the Tecan Infinite M200 microplate reader (Tecan, Männedorf, Switzerland).

[3] = tested on: calf-thymus DNA (ctDNA); test: UV-vis absorption titration with ctDNA; type: binding; conditions: hyperchromic effect at ∼350 nm
Description: For both Cu(II) complexes, the addition of DNA results in a gradual increase in the absorption intensity of the band at ∼350 nm, while the band position remains the same (Figure 14).
These values fall in the range reported previously for related Cu(II) complex with 4′-((naphthalen-2-yl)methoxy)-2,2′:6′,2″-terpyridine[21] that was proposed as an “outside binder”.
Absorption titration experiments were conducted by maintaining the complex concentration constant (25 μM) and varying the concentration of ctDNA (0–100 μM). Blank ctDNA samples were used as a reference.

T1 sequence (P02769 25-607): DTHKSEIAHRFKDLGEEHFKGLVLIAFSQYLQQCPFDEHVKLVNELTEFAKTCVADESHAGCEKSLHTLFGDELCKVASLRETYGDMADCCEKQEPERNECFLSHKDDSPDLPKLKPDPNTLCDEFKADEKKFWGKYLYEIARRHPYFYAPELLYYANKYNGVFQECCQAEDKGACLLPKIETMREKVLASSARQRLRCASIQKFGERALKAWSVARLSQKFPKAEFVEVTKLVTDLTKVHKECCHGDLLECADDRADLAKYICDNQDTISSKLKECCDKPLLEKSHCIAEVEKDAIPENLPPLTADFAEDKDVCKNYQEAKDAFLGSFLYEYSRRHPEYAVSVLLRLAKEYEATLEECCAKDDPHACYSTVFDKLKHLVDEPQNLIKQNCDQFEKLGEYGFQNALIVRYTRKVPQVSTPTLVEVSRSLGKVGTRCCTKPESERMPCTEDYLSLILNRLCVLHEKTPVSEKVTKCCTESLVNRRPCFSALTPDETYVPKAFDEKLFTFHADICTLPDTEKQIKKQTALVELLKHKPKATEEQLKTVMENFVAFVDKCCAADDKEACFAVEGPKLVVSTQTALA

Compound	BSA UV-Visible absorbance change [1]	BSA fluorescence quenching [1]	IC50 [2] [µM]	mode of interaction with DNA [3]
[Cl][Cu-3]12([Cl])[n+]3ccccc3-c3cc(-c4cccc5ccccc45)cc([n+]31)-c1cccc[n+]12 [Cu1a]	hypochromism	attenuation of BSA fluorescence was observed	10.1 ± 0.22	nonintercalative interactions with DNA, most likely via groove binding
[Cl][Cu-3]12([Cl])[n+]3ccccc3-c3cc(-c4ccc5ccccc5c4)cc([n+]31)-c1cccc[n+]12 [Cu1b]	hypochromism	an increased quenching effect was observed	33.9 ± 0.4	nonintercalative interactions with DNA, most likely via groove binding
